Columns and labels:
[1] = system: patients with relapsed B-cell malignancies (FL, CLL/SLL); assay: Phase 1b study of Compound A35 as single agent: disease response rate; format: in vivo, human
Procedure: (§1) An intermittent dosing schedule on days 1-7 of a 28-day cycle was then evaluated after 2 cycles of daily dosing, or ≥3 cycles of daily dosing to reduce the risk of immune-related adverse events. For this analysis the intermittent schedule (IS) group is defined as patients who received Compound A35 alone or with rituximab daily for 2 cycles then switched to an intermittent schedule of 1 week per cycle, and the continuous schedule (CS) group is defined as patients who never switched to intermittent dosing or switched to intermittent dosing in cycle 4 or later cycles. Toxicity on CS is managed by a switch to IS.
In an ongoing Phase 1b study, Compound A35 was administered as a single agent in patients with relapsed B-cell malignancies. Patients have been enrolled in 3 cohorts: • Group A: 31 patients enrolled in a dose escalation phase of the study, with Compound A35 administered as a single agent at a dose of 60, 120, and 180 mg/day. In Group A, all patients began receiving Compound A35 on a CS. Approximately 1.5 years after the start of the study, 17 ongoing patients were switched to the IS to prevent delayed immune-mediated toxicities after various duration of exposure on the CS. […]
31 patients received Compound A35 monotherapy at doses ≥60 mg daily on the CS, of whom 2 discontinued Compound A35 in the first 2 cycles of therapy and 29 received >2 cycles.
A very high rate of disease response was reported in 30 patients evaluable for response in the dose escalation cohort, both in FL and CLL/SLL, with no difference in response rate across the 3 doses evaluated (Table 2).

[2] = system: patients with relapsed B-cell malignancies; assay: Phase 1b study: patient dispositions on intermittent or continuous schedule; format: in vivo, human; conditions: Compound A35 alone arm
Procedure: as §1
In an ongoing Phase 1b study, Compound A35 was administered as a single agent in patients with relapsed B-cell malignancies. Patients have been enrolled in 3 cohorts: • Group A: 31 patients enrolled in a dose escalation phase of the study, with Compound A35 administered as a single agent at a dose of 60, 120, and 180 mg/day. In Group A, all patients began receiving Compound A35 on a CS. Approximately 1.5 years after the start of the study, 17 ongoing patients were switched to the IS to prevent delayed immune-mediated toxicities after various duration of exposure on the CS.
• Group B: 21 patients enrolled in an ongoing expansion cohort of up to 30 patients administered Compound A35 as a single agent at 60 mg/day on the CS for 2 cycles then switching to the IS in Cycle 3 (N=17) or later cycles (N=4).

murine B-cell tumors = assay: Tumor exposure and retention (FIGS. 3 and 4); format: in vivo
[3] = All evaluable patients, 60 mg, n = 12
[4] = All evaluable patients, 120 mg, n = 12
[5] = All evaluable patients, 180 mg, n = 6
[6] = All evaluable patients, Total (all doses), n = 30
[7] = CLL/SLL, Total (all doses), n = 9
[8] = FL evaluable, Total (all doses), n = 21

## CN1CCC(c2ccccc2CC(C)(C)Nc2nc(N3CCOCC3)nc(-n3c(C(F)F)nc4ccccc43)n2)CC1 [Compound A35]
[1]; [3]
  Morphologic and/or metabolic complete response: (42%)
  Morphologic and/or metabolic complete response, number of patients: 5
  Overall response rate: (92%)
  Overall response rate, number of patients: 11
[1]; [4]
  Morphologic and/or metabolic complete response: (33%)
  Morphologic and/or metabolic complete response, number of patients: 4
  Overall response rate: (92%)
  Overall response rate, number of patients: 11
[1]; [5]
  Morphologic and/or metabolic complete response, number of patients: 0
  Overall response rate: (83%)
  Overall response rate, number of patients: 5
[1]; [6]
  Morphologic and/or metabolic complete response: (30%)
  Morphologic and/or metabolic complete response, number of patients: 9
  Overall response rate: (90%)
  Overall response rate, number of patients: 27
[1]; CLL/SLL, 60 mg, n = 6
  Morphologic complete response: (50%)
  Morphologic complete response, number of patients: 3
  Overall response rate: (100%)
  Overall response rate, number of patients: 6
[1]; CLL/SLL, 120 mg, n = 2
  Morphologic complete response, number of patients: 0
  Overall response rate: (100%)
  Overall response rate, number of patients: 2
[1]; CLL/SLL, 180 mg, n = 1
  Morphologic complete response, number of patients: 0
  Overall response rate: (100%)
  Overall response rate, number of patients: 1
[1]; [7]
  Morphologic complete response: (33%)
  Morphologic complete response, number of patients: 3
  Overall response rate: (100%)
  Overall response rate, number of patients: 9
[1]; FL evaluable, 60 mg, n = 6
  Morphologic and/or metabolic complete response: (33%)
  Morphologic and/or metabolic complete response, number of patients: 2
  Overall response rate: (83%)
  Overall response rate, number of patients: 5
[1]; FL evaluable, 120 mg, n = 10
  Morphologic and/or metabolic complete response: (40%)
  Morphologic and/or metabolic complete response, number of patients: 4
  Overall response rate: (90%)
  Overall response rate, number of patients: 9
[1]; FL evaluable, 180 mg, n = 5
  Morphologic and/or metabolic complete response, number of patients: 0
  Overall response rate: (80%)
  Overall response rate, number of patients: 4
[1]; [8]
  Morphologic and/or metabolic complete response: (21%)
  Morphologic and/or metabolic complete response, number of patients: 6
  Overall response rate: (86%)
  Overall response rate, number of patients: 18
[2]; CS Group (N = 25)
  Discontinued therapy: Adverse event: (16%)
  Discontinued therapy: Adverse event, number of patients: 4
  Discontinued therapy: Progressive disease: (20%)
  Discontinued therapy: Progressive disease, number of patients: 5
[2]; IS Group (N = 15)
  Discontinued therapy: Adverse event, number of patients: 0
  Discontinued therapy: Progressive disease: (20%)
  Discontinued therapy: Progressive disease, number of patients: 3
Murine B-cell tumors; FIG. 4
  retention in murine B-cell tumors compared to idelalisib: preferential retention
Murine B-cell tumors; over a 4-hour and 24-hour period (FIG. 3)
  tumor exposure: preferential tumor exposure
